{
  "source": "patent US6812034B2",
  "about": "“Fetuin-MGP-mineral complex in serum assayed to determine calcification risk” (The Regents of the University of California, priority 2000, dated 2004)",
  "key": {"[1]": {"assay": "centrifugation of serum at 16,000 x g", "type": "in vivo, rat", "procedure": "The effect of centrifugation on the serum mineral complex was investigated in serum samples obtained 6 h after administration of etidronate at doses of 8 mg/100 g and 32 mg/100 g body weight. At the lower dose, no significant amount of calcium, phosphate, or MGP was sedimented after centrifugation for 30 min at 16,000×g. At the higher dose, a well-defined translucent pellet was obtained after centrifugation for 30 min at 16,000×g. This pellet was dissolved in 1 ml of 50 mM HCl and analyzed for calcium, phosphate, and MGP."}, "[2]": {"assay": "weight, tibia length and serum calcium and phosphate in warfarin-treated rats", "type": "in vivo, rat", "description": "This procedure induces artery calcification within 2 weeks without the presence of hypercalcemia."}, "[3]": {"assay": "serum levels of calcium and phosphate in rats treated with vitamin D plus warfarin", "type": "in vivo, rat", "procedure": "For measurement of mineral accumulation in arteries, each tissue was removed within 30 minutes of death and immediately frozen. Tissues were subsequently washed extensively with buffer and extracted with 1 ml of 10% formic acid for 24 h at room temperature, as described. Calcium levels in serum were determined colorimetrically using cresolphthalein complexone (Sigma) and phosphate levels in serum and in acid tissue extracts were determined calorimetrically as described (Zhu et al. (1994) Cardiology, 85: 370-377). Tissue sectioning and staining were carried out by Biomedical Testing Services, Inc., (San Diego, Calif.). […]"}, "[4]": {"system": "normal bone mineralization", "settings": "parenteral; cited from earlier work"}, "[5]": {"system": "warfarin-induced artery calcification", "assay": "artery calcification in rats treated with warfarin for 2 or 4 weeks", "type": "in vivo, rat", "settings": "6.25 mg P/kg/day plus warfarin, both carotid arteries", "procedure": "(§1) Tissues were subsequently washed extensively with buffer and extracted with 1 ml of 10% formic acid for 24 h at room temperature, as described. Calcium levels in serum were determined colorimetrically using cresolphthalein complexone (Sigma) and phosphate levels in serum and in acid tissue extracts were determined calorimetrically as described (Zhu et al. (1994) Cardiology, 85: 370-377). Tissue sectioning and staining were carried out by Biomedical Testing Services, Inc., (San Diego, Calif.). The effect of bisphosphonates on artery calcification was also examined in rats treated with warfarin alone using procedures which have been described elsewhere (Price et al. (1998) Arterioscler. Thromb. Vasc. Biol. 18: 1400-1407)."}, "[6]": {"system": "vitamin D-induced artery calcification", "assay": "mineral phosphate accumulation in acid demineralization extracts of thoracic aorta and carotid arteries, vitamin D plus warfarin", "type": "in vivo, rat", "procedure": "as §1, with “first” for “also”, “in which artery calcification was induced by treatment” for “treated”, “plus high doses of vitamin D. […] All animals were killed by exsanguination at 96 h. […] All animals were killed by exsanguination at 96 h after the first vitamin D dose. […] All animals were killed by exsanguination 96 h after the first vitamin D injection.” for “alone using procedures which have been described elsewhere (Price et al. (1998) Arterioscler. Thromb. Vasc. Biol. 18: 1400-1407).”"}, "[7]": {"settings": "previous study (Price et al. 1981); cited from earlier work"}, "[8]": {"system": "arotinoid-induced bone resorption", "settings": "relative antiresorption potency in the rat, etidronate = 1; cited from earlier work"}, "[9]": {"settings": "32 mg/100 gm sc, 6 h, 1 ml pooled serum prior to centrifugation"}, "[10]": {"settings": "32 mg/100 gm sc, 6 h, 16,000 x g 30 min"}, "[11]": {"settings": "6.25 mg P/kg/day plus warfarin, 4 weeks"}, "[12]": {"settings": "6.25 mg P/kg/day, 84 h after first vitamin D"}},
  "data": [
    {"smiles": "CC(O)(P(=O)(O)O)P(=O)(O)O", "note": "[Etidronate, (1-hydroxyethylylidene)-bisphosphonate]", "values": [
      {"measurement": "sedimentation of calcium, phosphate or MGP", "setting": "[1]; 8 mg/100 g, 6 h serum, 30 minutes at 16,000 x g", "value": "unable to demonstrate the sedimentation"},
      {"measurement": "Calcium, Initial Serum", "setting": "[1]; [9]", "value": 9.64, "unit": "µmol"},
      {"measurement": "MGP, Initial Serum", "setting": "[1]; [9]", "value": "16,200 ng"},
      {"measurement": "Phosphate, Initial Serum", "setting": "[1]; [9]", "value": 7.49, "unit": "µmol"},
      {"measurement": "Calcium, Dissolved Pellet", "setting": "[1]; [10]", "value": 3.27, "unit": "µmol"},
      {"measurement": "Calcium, Supernatant", "setting": "[1]; [10]", "value": 6.88, "unit": "µmol"},
      {"measurement": "MGP, Dissolved Pellet", "setting": "[1]; [10]", "value": "14,400 ng"},
      {"measurement": "MGP, Supernatant", "setting": "[1]; [10]", "value": 800, "unit": "ng"},
      {"measurement": "Phosphate, Dissolved Pellet", "setting": "[1]; [10]", "value": 1.68, "unit": "µmol"},
      {"measurement": "Phosphate, Supernatant", "setting": "[1]; [10]", "value": 5.84, "unit": "µmol"},
      {"measurement": "final length of the tibia", "setting": "[2]; 6.25 mg P/kg/day plus warfarin 4 weeks, warfarin alone 3.80±0.04, p<0.001", "value": "3.59±0.03", "unit": "cm"},
      {"measurement": "Ending wt", "setting": "[2]; [11]", "value": "238 ± 11", "unit": "gm"},
      {"measurement": "effect on weight gain", "setting": "[2]; [11]", "value": "inhibits weight gain"},
      {"measurement": "mg Ca dl serum", "setting": "[2]; [11]", "value": "10.9 ± 0.8", "unit": "mg/dL"},
      {"measurement": "mg P dl serum", "setting": "[2]; [11]", "value": "8.1 ± 0.6", "unit": "mg/dL"},
      {"measurement": "Serum Ca", "setting": "[3]; 0.25 mg P/kg/day, 84 h", "value": "13.7 ± 1.2", "unit": "mg/dL"},
      {"measurement": "Serum P", "setting": "[3]; 0.25 mg P/kg/day, 84 h", "value": "10.8 ± 0.5", "unit": "mg/dL"},
      {"measurement": "Serum Ca", "setting": "[3]; 1.25 mg P/kg/day, 84 h", "value": "13.5 ± 0.7", "unit": "mg/dL"},
      {"measurement": "Serum P", "setting": "[3]; 1.25 mg P/kg/day, 84 h", "value": "9.5 ± 0.3", "unit": "mg/dL"},
      {"measurement": "Serum Ca", "setting": "[3]; [12]", "value": "15.0 ± 0.5", "unit": "mg/dL"},
      {"measurement": "Serum P", "setting": "[3]; [12]", "value": "8.2 ± 0.4", "unit": "mg/dL"},
      {"measurement": "dose required to inhibit normal bone mineralization in vivo", "setting": "[4]", "value": "about 5 mg P/kg/day"},
      {"measurement": "nmol PO4 Carotid", "setting": "[5]", "value": "55.2 ± 14.5", "unit": "nmol"},
      {"measurement": "dose required to reduce the extent of mineralization by half in the thoracic aorta", "setting": "[6]; 84 h, FIG. 3", "value": 2, "unit": "mg P/kg/day"},
      {"measurement": "dose required to reduce the extent of mineralization by half in the carotid artery", "setting": "[6]; 84 h, FIG. 4", "value": 2, "unit": "mg P/kg/day"},
      {"measurement": "Artery Calcification Dose for 50% inhibition", "setting": "[6]; daily subcutaneous dose, vitamin D-induced artery calcification, male rats initially 200 g", "value": 2, "unit": "mg P/kg/day"},
      {"measurement": "Artery Calcification Relative potency", "setting": "[6]; relative to etidronate = 1", "value": 1},
      {"measurement": "transient elevation in serum BGP levels", "setting": "[7]", "value": 3, "unit": "fold"},
      {"measurement": "Bone Resorption Relative potency", "setting": "[8]", "value": 1}
    ]}
  ]
}
